Here are results for four compounds from patent US20230255943A1, “MMP-9 AND MMP-12 INHIBITION FOR TREATING SPINAL CORD INJURY OR RELATED INJURY TO NEUROLOGICAL TISSUE” (The University of Birmingham, priority 2020, published 2023).

For assay [1], the system named is mice with DC crush injury. The assay is described as follows: Spinal cord water content (oedema) after DC crush injury in mice. The assay is classed as in vivo, mouse. The conditions noted are these: for spinal cord water content, comparison of MMP inhibitors (FIG. 4) / spinal cord water content: 3 days after DC injury; for spinal cord water content, comparison of MMP inhibitors (FIG. 4): doses and routes of Table 1, vs DC+vehicle. As to the method:
For oral delivery of AZD1236, n=6 adult male C57BL6 mice/group (Charles River, Margate, UK) were randomly allocated to either: (1), Sham (control; partial laminectomy but no DC crush injury); (2), DC crush injury+vehicle (partial laminectomy followed by DC crush injury and injection of vehicle); (3), DC crush injury+100 mg/kg AZD1236; (4), DC crush injury+200 mg/kg AZD1236; and (5), DC crush injury+300 mg/kg AZD1236. For intrathecal (it) delivery of AZD1236, adult male C57BL6 mice (25-30 g) (Charles River, Margate, UK) were randomly allocated to either: (1), Sham (control; partial laminectomy but no DC crush injury); (2), DC crush injury+vehicle (partial laminectomy followed by DC crush injury and injection of vehicle); (3), DC crush injury+2.5 mg/kg AZD1236; (4), DC crush injury+5 mg/kg AZD1236; and (5), DC crush injury+10 mg/kg AZD1236. For intrathecal delivery an indwelling atlanto-occipital intrathecal catheter was inserted into the intrathecal space, as described previously (F. A. Oladosu, B. P. Ciszek, S. C. O'Buckley, A. G. Nackley, Novel intrathecal and subcutaneous catheter delivery systems in the mouse. J Neurosci Methods 264, 119-128 (2016)). Briefly, with mice in the sternal recumbency a small incision was made at the nape of the neck followed by detachment of the muscles on either side of the external occipital crest to expose the A-O membrane. The membrane was incised and a 6 cm Alzet mouse intrathecal catheter (Alzet, Cupertino, Calif., USA) and polyurethane segments were gently guided 2.5 cm into the intrathecal space. The catheter was secured using 4-0 silk sutures (Oasis Medical, IL) and the exposed end of the catheter was sealed off with a stainless-steel plug and affixed to the upper back. Animals were injected immediately with vehicle or AZD1236 followed by a 10 μl PBS catheter flush. Injections were repeated every twice daily for the first 3 days after injury and drugs and vehicle reagents were delivered over 1 min time period using a Hamilton microlitre syringe (Hamilton Co, USA). Where specified intact animals with no surgical procedures were also used. All lesions were administered under 5% isofluorane induced inhalation anaesthesia, with 1.51/min O2. Pre- and post-injury analgesia was also provided.
DC crush injury was administered bilaterally at the T8 vertebral level as described previously (S. Surey, M. Berry, A. Logan, R. Bicknell, Z. Ahmed, Differential cavitation, angiogenesis and wound-healing responses in injured mouse and rat spinal cords. Neuroscience 275, 62-80 (2014); M. L. Read, S. Mir, R. Spice, R. J. Seabright, E. L. Suggate, Z. Ahmed, M. Berry, A. Logan, Profiling RNA interference (RNAi)-mediated toxicity in neural cultures for effective short interfering RNA design. J Gene Med 11, 523-534 (2009)). Briefly, calibrated watchmaker's forceps were separated by 0.5 mm and inserted through the dorsal cord meninges to a depth of 0.45 mm in mice and separated by 1 mm and inserted through the dorsal cord meninges to a depth of 1.0 mm in rats, and the DC were crushed for 3 seconds. AZD1236 or vehicle was administered twice daily by oral gavage or intrathecally, either immediately for the first 3 days or 24 hours after injury and treating twice daily until day 4 (i.e. 3 days of AZD1236 dosing). All experiments were performed with n=6 mice/group and repeated on at least 2-3 independent occasions (total=12-18 animals/group/test).
The lesion site+3 mm either side for mice and the lesion site+5 mm either side for the rat DC model were dissected out and the water content of the spinal cord (as a measure of oedema) was determined at 3 days after DC and CC SCI, as described previously (S. Li, C. H. Tator, Effects of MK801 on evoked potentials, spinal cord blood flow and cord edema in acute spinal cord injury in rats. Spinal Cord 37, 820-832 (1999)). Spinal cords containing the lesion site were weighed on aluminium foil, dried at 105° C. for 24 hr, and re-weighed. […]

The subject of assay [2] is mice with DC crush injury. The assay is classed as in vivo, mouse. The settings on record: for number of CTB+ DC axons regenerating, comparison with other MMP inhibitors (FIG. 11): mouse, in vivo.
The subject of assay [3] is J774A.1, RAW 264.7 and primary mouse peritoneal macrophages. The assay is described as follows: Transwell migration assay of macrophages. The assay is classed as cell-based. The settings on record: J774A.1 and RAW 264.7, 3 h. As to the method: J774A.1 cells (#TIB-67; ATCC, Middlesex, UK) were cultured in DMEM supplemented with 10% FBS, 100 U/ml penicillin, 100 μg/ml streptomycin, and 0.25 μg amphotericin B. Cells were seeded in T75 tissue-culture flasks and maintained at 37° C. and 5% CO2. RAW 264.7 cells (#TIB-71; ATCC) were maintained in DMEM containing 10% FBS.
Resident peritoneal cells were harvested from adult C57BL/6 mice (6-8 weeks old) by injection of 10 ml of PBS using a 21G needle into the peritoneal cavity and harvesting the cell suspension, as described previously (Rosas M, Davies L C, Giles P J, Liao C T, Kharfan B, Stone T C, et aL. The transcription factor Gata6 links tissue macrophage phenotype and proliferative renewal. Science 2014; 344(6184): 645-8). Peritoneal cells were then centrifuged at 100×g for 10 min and the cell pellet resuspended in DMEM/F12 medium. Cell were incubated at 37° C., for 2 h and non-adherent cells were removed by gentle washing. Cells were expanded in DMEM/F12 medium containing 10% FBS. For migration assays, cells were grown in RPMI containing 0.02% BSA for 24 h to obtain quiescent cells prior to using them in Transwell migration assays as described below.
Migration assays were performed with J774A.1, RAW 264.7 and primary mouse peritoneal macrophages in 6.5 mm Transwell plates (ThermoFisher) with 8 μm pore inserts, as described previously (Green et al., 2012). Briefly, inserts were coated with rat tail type I collagen and 1×10^5 cells (J774A.1, RAW 264.7 or primary mouse macrophages) were resuspended in chemotaxis buffer (RMPI 1640 plus 0.02% BSA, (termed RPMI from herein)) and added to the upper chamber and incubated with migration medium, with or without known chemotactic factors MCP-1 (100 ng/ml) and PMA (100 nM), or AZD1236, GM6001, SD2590 and MMP-9 Inhibitor I (all used at 1, 10, 100, 1000 ng/ml) added to the lower chamber. Cells were allowed to migrate through the insert membrane for 3 h at 37° C., before washing inserts with PBS. Non-migrating cells remaining on the upper surface were removed with a cotton swab whilst the migrated cells on the insert were fixed, stained with Diff-Quick (#26096, Electron Microscopy Science, Hatfield, UK), and mounted on glass slides. Migration was measured visually by counting using a light microscope at 40× magnification. The mean number of cells in 10 random fields were calculated for each treatment by an experimenter masked to the treatment conditions. A migration index was calculated by dividing the number of cells that migrated in response to the chemokine by the number of cells that migrated randomly (RPMI medium) with a reference index>1, indicating chemotaxis.

The structures appear in SMILES notation. Entries after “also recorded” stand apart in the source; their conditions may differ. Where a name gives a salt, the structure may show the parent alone.

Turning to `C[C@]1(CS(=O)(=O)N2CC=C(C#Cc3cnc(C4CC4)nc3)CC2)NC(=O)NC1=O` [AZD1236], the “spinal cord water content, comparison of MMP inhibitors (FIG. 4)” value in assay [1] is given as “far more effective than any of these compounds; also recorded: almost completely ablating DC injury-induced rises”. Further, the “intrathecal dose required for same reduction of water content, as fraction of oral dose” value in assay [1] (intrathecal vs oral) is 1/40. In addition, the “spinal cord water content” value in assay [1] (intrathecal, 5.0 and 10.0 mg/kg) is on record as “reduced to sham-treated levels”; in assay [1] (oral, twice daily, 200 mg/kg and 300 mg/kg), “reducing to sham-treated levels”. The “SCI-induced water content, 24-h delayed treatment” value in assay [1] (optimal doses, 24 h delay vs immediate) was “equally as effective as immediate delivery”. Besides, the “CTB+ fibres regenerating through the lesion site, 24 h delayed treatment” value in assay [2] (24 h delay vs immediate) was “promoted the same amount”. Also, the “number of CTB+ DC axons regenerating, comparison with other MMP inhibitors (FIG. 11)” value (“number … with other MMP inhibitors (FIG. 11)” below) in assay [2] was “far superior at promoting DC axon regeneration”. In addition, in assay [2] (oral), the “extension of CTB labelled axons from the lesion centre” value was “at least 1000 μm”. Moreover, the “CTB+ labeling intensity (percentage of CTB labelled axons)” value in assay [2] (oral, vs DC+Vehicle) is reported as “significantly enhanced percentage of CTB labelled axons”. The “macrophage migration (migration index, chemotaxis)” value in assay [3] is “no effect on chemotaxis”.
Consider `CNC(=O)[C@H](Cc1c[nH]c2ccccc12)NC(=O)[C@@H](CC(=O)NO)CC(C)C` [GM6001, (2R)—N^4-Hydroxy-N^1-[(1S)-1-(1H-indol-3-ylmethyl)-2-(methylamino)-2-oxoethyl]-2-(2-methylpropyl)butanediamide, reference compound], for which the “spinal cord water content, comparison of MMP inhibitors (FIG. 4)” value in assay [1] is on record as “significantly reduced spinal cord water content”. Besides, the “number … with other MMP inhibitors (FIG. 11)” value in assay [2] was “only a marginal effect on axon regeneration”. In assay [3], the “macrophage migration (migration index, chemotaxis)” value was “not affected”.
In the same order, the values of `CCN(CC)Cc1cc(C)c(N(Cc2ccccc2)S(=O)(=O)c2ccc(OC)cc2)c(C(=O)NO)c1` [MMP-9 Inhibitor I, reference compound] are “significantly reduced spinal cord water content”, “only a marginal effect on axon regeneration” and “not affected”.
With `COCCN1CCC(C(=O)NO)(S(=O)(=O)c2ccc(Oc3ccc(OC(F)(F)F)cc3)cc2)CC1` [SD2590, N-Hydroxy-1-(2-methoxyethyl)-4-[4-[4-(trifluoromethoxy)phenoxy]phenyl]sulfonyl]-4-piperidinecarboxamide hydrochloride, reference compound], the “spinal cord water content, comparison of MMP inhibitors (FIG. 4)” value in assay [1] was “significantly reduced spinal cord water content”. Further, the “number … with other MMP inhibitors (FIG. 11)” value in assay [2] was “only a marginal effect on axon regeneration”. For the same compound, in assay [3], the “macrophage migration (migration index, chemotaxis)” value is “not affected”.
